Test results as given in patent US20240246905A1 (University of Leicester, priority 2021, published 2024).
In brackets after ≈: the same amount, converted by molar mass.

Legend:
MRSA 252 [1] = test: MIC, broth micro-dilution; format: cell-based, Staphylococcus aureus; conditions: Staphylococcus aureus, read-out: MIC
In short: (§1)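 Broth micro-dilution followed CLSI 2017: 1:2 antibiotic dilutions in TSB were inoculated at 5×10^5 CFU/mL. OD was recorded every 12 min over 18 h at 37 °C, and MIC was derived from sigmoidal dose-response fits.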

MSSA 476 [2] = test: MIC, broth micro-dilution; format: cell-based, Staphylococcus aureus; conditions: Staphylococcus aureus, MSSA, read-out: MIC
In short: as §1

MRSA 252 [3] = test: Disc diffusion (Kirby-Bauer), zone of inhibition; format: cell-based, Staphylococcus aureus; conditions: Staphylococcus aureus, 500 μg/mL, '/' = no zone, read-out: Zone of inhibition
In short: (§2)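 Kirby-Bauer per CLSI 2017: 1 in 200 dilutions of overnight cultures (LB for Gram-negatives, TSB for Gram-positives) spread on Mueller-Hinton agar. Discs loaded with 50 μL antibiotic were added and plates incubated 24 h at 37 °C. Zone of inhibition recorded.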

MSSA 476 [4] = test: Disc diffusion (Kirby-Bauer), zone of inhibition; format: cell-based, Staphylococcus aureus; conditions: Staphylococcus aureus, 500 μg/mL, '/' = no zone, read-out: Zone of inhibition
In short: as §2

Escherichia coli DH5α = test: Disc diffusion (Kirby-Bauer), zone of inhibition; format: cell-based; conditions: Escherichia coli DH5α; 500 μg/mL; '/' = no zone; read-out: Zone of inhibition
In short: as §2

[5] = test system: Staphylococcus aureus 15981; test: Disc diffusion (Kirby-Bauer), zone of inhibition; format: cell-based; conditions: Staphylococcus aureus 15981; 500 μg/mL; '/' = no zone; read-out: Zone of inhibition
In short: as §2

[6] = test system: various Staphylococcus aureus strains; test: Disc diffusion, Staphylococcus aureus strain study; format: cell-based; conditions: Staphylococcus aureus, 500 μg/mL
Source text: At this point in the study it was decided to perform a disc diffusion assay study on 50 S. aureus strains. […] Moreover, by employing a range of mutant strains of S. aureus with specific gene-deletions, it was believed that if particular strains were resistant to the lead compounds, it could provide insights on the likely protein target of the lead antibiotics. However, all six of the compounds utilized in this study were able to inhibit growth of all 50 strains of S. aureus assayed at the chosen concentration of 500 μg/mL concentration (Table 5).
E. coli DH5α, P. aeruginosa PA01 and the 53 S. aureus strains were recovered from frozen (−80° C.) glycerol (15% v/v) stocks on Lysogeny agar (LA)—Gram negative and trypticase soy agar (TSA)—plates at 37° C. for 24 hours. Single colonies were placed in either 3 mL Lysogeny broth (LB)—Gram negative or trypticase soy broth (TSB)—Gram positive and incubated at 37° C., 250 rpm for 18 hours.
The antibiotic activity was determined using a Kirby-Bauer method according to Clinical Standard Laboratory Institute (CSLI) Guidelines (2017). Briefly, 180 μL of a 1 in 200 dilution (in LB or TSB) of overnight cultures of selected Gram negative and Gram positive bacteria were applied to an agar plate containing the solid growth medium, Mueller-Hinton agar (MHA). Sterile discs, inoculated with 50 μL of antibiotic, were first added to the agar plate before the plates were incubated for 24 hours at 37° C. Following incubation, the zone of inhibition (if it existed) was recorded.

HEK293 cells = test: Cytotoxicity assay, resazurin (CO-ADD); conditions: set concentration of 32 μg/mL
Method: The cytotoxicity studies were performed by CO-ADD (The Community for Open Antimicrobial Drug Discovery), funded by the Wellcome trust (UK) and the University of Queensland, Australia.^(28) In this study, the compounds were screened against a human embryonic kidney cell line, HEK293, at a set concentration of 32 μg/mL.
DMEM supplemented with 10% FBS was used as growth media and the cells were incubated together with the compounds for 20 hours at 37° C. in 5% CO2.
Cytotoxicity (or cell viability) was measured by fluorescence, excitation: 560/10 nm, emission: 590/10 nm (F560/590), after addition of 5 μL of 25 μg/mL Resazurin (2.3 μg/mL final concentration) and after incubation for further 3 h at 37° C. in 5% CO2. The fluorescence intensity was measured using a Tecan M1000 Pro monochromator plate reader, using automatic gain calculation CC50 (concentration at 50% cytotoxicity) were calculated by curve fitting the inhibition values vs. log(concentration) using sigmoidal dose-response function, with variable fitting values for bottom, top and slope. The curve fitting was implemented using Pipeline Pilot's dose-response component.

What does the source list for `[C-]#[N+]C=Cc1ccc(O)cc1` [Compound 2, 4-(2-Isocyanovinyl)phenol]?
MIC (MRSA 252 [1]): 90 µg/mL (≈ 620 µM); MIC (MSSA 476 [2]): 100 µg/mL (≈ 689 µM); zone of inhibition at 500 µg/mL (MRSA 252 [3]): 22 mm; zone of inhibition at 500 µg/mL (MSSA 476 [4]): 20 mm; zone of inhibition at 500 µg/mL (Escherichia coli DH5α): 20 mm; zone of inhibition at 500 µg/mL [5]: 22 mm; zone of inhibition at 500 µg/mL ([6]; MRSA, strain MRSA 252): 16 mm; zone of inhibition at 500 µg/mL ([6]; strain ASARM 61): 15 mm; zone of inhibition at 500 µg/mL ([6]; strain ASARM 70): 14 mm; zone of inhibition at 500 µg/mL ([6]; strain ASARM 71): 14 mm; zone of inhibition at 500 µg/mL ([6]; strain ASARM 72): 12 mm; zone of inhibition at 500 µg/mL ([6]; strain ASARM 73): 16 mm; zone of inhibition at 500 µg/mL ([6]; strain ASARM 75): 15 mm; zone of inhibition at 500 µg/mL ([6]; strain ASARM 76): 14 mm; zone of inhibition at 500 µg/mL ([6]; strain ASARM 77): 14 mm; zone of inhibition at 500 µg/mL ([6]; strain ASARM 79): 13 mm; zone of inhibition at 500 µg/mL ([6]; strain ASARM 80): 13 mm; zone of inhibition at 500 µg/mL ([6]; strain EOE 3): 12 mm; zone of inhibition at 500 µg/mL ([6]; strain EOE 23): 16 mm; zone of inhibition at 500 µg/mL ([6]; strain EOE 30): 18 mm; zone of inhibition at 500 µg/mL ([6]; strain EOE 35): 14 mm; zone of inhibition at 500 µg/mL ([6]; strain EOE 41): 17 mm; zone of inhibition at 500 µg/mL ([6]; strain EOE 42): 16 mm; zone of inhibition at 500 µg/mL ([6]; strain EOE 45): 15 mm; zone of inhibition at 500 µg/mL ([6]; strain EOE 52): 14 mm; zone of inhibition at 500 µg/mL ([6]; strain EOE 54): 16 mm; zone of inhibition at 500 µg/mL ([6]; strain EOE 57): 18 mm; zone of inhibition at 500 µg/mL ([6]; strain S139_7_7): 14 mm; zone of inhibition at 500 µg/mL ([6]; strain S197_1_1): 25 mm; zone of inhibition at 500 µg/mL ([6]; strain S197_1_8): 16 mm; zone of inhibition at 500 µg/mL ([6]; strain S197_1_9): 16 mm; zone of inhibition at 500 µg/mL ([6]; strain S197_1_10): 15 mm; zone of inhibition at 500 µg/mL ([6]; strain S295_1_1): 20 mm; zone of inhibition at 500 µg/mL ([6]; strain S295_1_2): 14 mm; zone of inhibition at 500 µg/mL ([6]; strain S295_1_3): 18 mm; zone of inhibition at 500 µg/mL ([6]; strain S364_5_11): 26 mm; zone of inhibition at 500 µg/mL ([6]; strain S364_5_12): 22 mm; zone of inhibition at 500 µg/mL ([6]; strain Sa_TPS 3026): 14 mm; zone of inhibition at 500 µg/mL ([6]; strain Sa_TPS 3072): 16 mm; zone of inhibition at 500 µg/mL ([6]; strain Sa_TPS 3092): 20 mm; zone of inhibition at 500 µg/mL ([6]; strain Sa_TPS 3097): 15 mm; zone of inhibition at 500 µg/mL ([6]; strain Sa_TPS 3103): 16 mm; zone of inhibition at 500 µg/mL ([6]; strain Sa_TPS 3104): 15 mm; zone of inhibition at 500 µg/mL ([6]; strain Sa_TPS 3106): 15 mm; zone of inhibition at 500 µg/mL ([6]; strain Sa_TPS 3118): 18 mm; zone of inhibition at 500 µg/mL ([6]; strain Sa_TPS 3133): 14 mm; zone of inhibition at 500 µg/mL ([6]; strain Sa_TPS 3134): 14 mm; zone of inhibition at 500 µg/mL ([6]; strain USFL 008): 14 mm; zone of inhibition at 500 µg/mL ([6]; strain USFL 009): 14 mm; zone of inhibition at 500 µg/mL ([6]; strain USFL 012): 16 mm; zone of inhibition at 500 µg/mL ([6]; strain USFL 016): 14 mm; zone of inhibition at 500 µg/mL ([6]; strain USFL 018): 15 mm; zone of inhibition at 500 µg/mL ([6]; strain USFL 020): 14 mm; zone of inhibition at 500 µg/mL ([6]; strain USFL 021): 16 mm; zone of inhibition at 500 µg/mL ([6]; strain USFL 028): 15 mm; zone of inhibition at 500 µg/mL ([6]; strain USFL 035): 15 mm; zone of inhibition at 500 µg/mL ([6]; strain USFL 054): 14 mm; toxicity towards the HEK293 cell line (in words) (HEK293 cells): no toxicity
